Results as given in patent US5670538A, “Use of prodelphinidins for obtaining medicaments intended for the treatment of arthrosis” (Laboratoires Dolisos, priority 1992, dated 1997).
Like-named read-outs stand apart in the source and are kept apart here.

Columns and labels:
[1] = test system: human articular chondrocytes; assay: Radioimmunoassay of cartilaginous proteoglycans (PG) produced in tridimensional culture of human chondrocytes; format: cell-based; conditions: for PG in the clusters over 12 days: 0-12 days
Excerpt: The model used for testing the proanthocyanidols, namely the tridimensional culture of human chondrocytes allows chondrorepair to be quantified by the production of matrix substances: type II collagen, proteoglycans, and chondroresorption by the reduction in the levels of prostaglandin E2 and of OH° and O°2 type free radicals produced.
1. Tridimensional culture of human chondrocytes
The technique used has been described in detail (Bassleer et al., 1986).
Briefly, human articular chondrocytes are cultivated in DMEM (Dulbecco's Modification of Eagle's Medium--ICN--Gand, Belgium) with either Ultroser G 1% (GIBCO, Gand, Belgium) or 10% of foetal calf serum (ICN--Gand--Belgium), and 50 μg of ascorbic acid/ml added to it. The cartilage originates from the apparently normal zone of heads of human femur suffering from arthrosis, immediately after an operation carried out to insert a total hip prosthesis; it can also originate from the head of a healthy femur, but which has undergone a traumatism and has had to be replaced. This cartilage is then digested by clostridial collagenase 1 mg/ml (Boehringer-Mannheim, Germany) in a buffer (NaCl 120 mM, CaCl2 1 mM, KCl 5 mM, KH2 PO4 1 mM, NaHCO3 25 mM, glucose 2 mM and Hepes 30 mM, pH 7.4) for 24 hours. After 6 successive washings and centrifugations, the chondrocytes, isolated from their matrix, are cultured in flasks (10^6 cells/2 ml of culture medium) placed on a gyrator (10 rpm). The cultures are kept at 37° C. in an atmosphere of air 95%-CO2 5% (Bassleer et al., 1986). Cultivated under these conditions, after 4 to 5 days the chondrocytes form a tridimensional cluster in each flask. These clusters, which at first have a flocculent appearance, then tend to condense during the culture. After two weeks, their diameter is, in general, from 1 to 2 mm.
The fresh weight of the clusters increases with the duration of the culture, above all during the few first days.
2. Radioimmunoassay of cartilaginous proteoglycans (PG)
The PGs are measured with a radioimmunoassay (RIA) which is specific and sensitive to human cartilaginous PGs (Gysen et al. 1984). The PGs were extracted from human cartilage, according to the methods described by Roughley et al., (1981) and by Bayliss and Venn (1980). The antiserum against the cartilaginous PGs was obtained from the rabbit according to the technique of Vaitukaitis et al. (1971). The radioimmunoassay is carried out in a 0.4 ml volume consisting of 0.1 ml of tracer solution (15000 to 20000 cpm ^125 I-PG, labelled by the chloramine T method (Greenwood, 1973). 0.1 ml of anti-PG antiserum diluted to 1/5000 in phosphate-buffered saline (PBS-50 mM PO4, 150 mM NaCl ), containing BSA (5 g/l bovine serum albumin and 6.7 mM sodium azide) (incubation buffer) and 0.2 ml of several dilutions of the culture medium or of the cluster extract or also of the antigen (0.5 -500 ng/tube).
After four days at 4° C., the free PGs* (radioactive PGs) are separated from the PG*-antibody complexes by double precipitation (Franchimont et al., 1983).
The sensitivity of the assay is 0.6 ng/tube. The accuracy of measurement is of the order of 4%. The coefficients of the intra- and inter assay variation are less than 10% and 20% respectively.
The antibodies are directed against the antigenic determinants of the central protein of PG. There is a complete crossed reaction with human PGs of cartilage from the ribs, vertebral disks and trachea, even with PGs extracted from veins or arteries. There is no cross reaction with glycosaminoglycans or with PGs extracted from foetal tissues or the small PGs from bone.
The PGs are measured directly in the culture medium. As for the chondrocyte clusters, they are washed 3 times in a phosphate-buffered saline (PBS-50 mM PO4, 150 mM NaCl pH 7.4) containing protease inhibitors (Oegema et al., 1975:100 mM 6-aminohexanoic acid, 10 mM EDTA, 50 mM benzamidine hydrochloride, 5.10^-8 M trypsin inhibitor, 6.7 mM sodium azide and 200 U/ml superoxide dismutase). […]

[2] = Production of OH° hydroxyl radicals (gamma irradiation, KMB substrate, ethylene by gas chromatography); format: biochemical; conditions: for % inhibition of the production of hydroxyl radicals: Substrate: KMB, relative to the controls
Description: 8. Production of OH° hydroxyl radicals
The products are dissolved in 10 ml flasks at the required concentration in phosphate buffer: 6.6.10^-2 M, pH 7.4 in the presence of alpha keto methiolbutyric acid (10^-3 M: KMB). After the flasks have been hermetically sealed, the samples are irradiated with gamma rays provided by a ^137 Cs source.
The OH° radicals produced by the gamma radiation react with the KMB to produce the ethylene detected by a gas chromatograph. The height of the ethylene peak is proportional to the quantity of free radicals formed in the medium (Weis et al., 1978).

ferricytochrome C = assay: Control experiments: direct reduction of ferricytochrome C by the product itself; format: biochemical; conditions: effect not quantifiable
Excerpt: This effect not being quantifiable, no conclusion can consequently be drawn on a possible inhibiting effect of these products on the production of the superoxide anion by the activated PMNs.

Q: Which “PG in the clusters over 12 days” value ([1]; 1% Ultroser G, 1 μg/ml) does the source give for `Oc1cc(O)c2c(c1)O[C@H](c1cc(O)c(O)c(O)c1)[C@@H](O)[C@@H]2c1c(O)cc(O)c2c1O[C@H](c1cc(O)c(O)c(O)c1)[C@H](O)C2` [Substance Ia, GC-(4 alpha→8) EGC] here?
A: 912 ± 83.6 ng/μg DNA

Q: What about the “PG in the clusters over 12 days” value ([1]; 1% Ultroser G, 10 μg/ml) of the same compound?
A: 1411 ± 153 ng/μg DNA

Q: What about the “PG in the clusters over 12 days” value ([1]; 1% Ultroser G, 100 μg/ml) of the same compound?
A: 2105 ± 42 ng/μg DNA

Q: And the “PGs released in the culture medium” value ([1]; 1% Ultroser G, culture time 0-4 days, 1 μg/ml)?
A: 14.2 ± 1.6 μg/μg DNA/96 h

Q: What about the “PGs released in the culture medium” value ([1]; 1% Ultroser G, culture time 0-4 days, 10 μg/ml) of the same compound?
A: 22.4 ± 0.2 μg/μg DNA/96 h

Q: What about the “PGs released in the culture medium” value ([1]; 1% Ultroser G, culture time 0-4 days, 100 μg/ml) of the same compound?
A: 28.6 ± 2.85 μg/μg DNA/96 h

Q: And the “PGs released in the culture medium” value ([1]; 1% Ultroser G, culture time 4-8 days, 1 μg/ml)?
A: 1.74 ± 0.18 μg/μg DNA/96 h

Q: What about the “PGs released in the culture medium” value ([1]; 1% Ultroser G, culture time 4-8 days, 10 μg/ml) of the same compound?
A: 3.26 ± 0.12 μg/μg DNA/96 h

Q: What about the “PGs released in the culture medium” value ([1]; 1% Ultroser G, culture time 4-8 days, 100 μg/ml) of the same compound?
A: 3.94 ± 0.1 μg/μg DNA/96 h

Q: What about the “PGs released in the culture medium” value ([1]; 1% Ultroser G, culture time 8-12 days, 1 μg/ml) of the same compound?
A: 0.44 ± 0.04 μg/μg DNA/96 h

Q: What about the “PGs released in the culture medium” value ([1]; 1% Ultroser G, culture time 8-12 days, 10 μg/ml) of the same compound?
A: 0.74 ± 0.18 μg/μg DNA/96 h

Q: And the “PGs released in the culture medium” value ([1]; 1% Ultroser G, culture time 8-12 days, 100 μg/ml)?
A: 0.78 ± 0.02 μg/μg DNA/96 h

Q: And the “Proteoglycans released during the 12 days of culture, Abs” value ([1]; 1% Ultroser G, cumulative, 1 μg/ml)?
A: 16.4 μg/μg DNA/12 days

Q: What about the “Proteoglycans released during the 12 days of culture, Abs” value ([1]; 1% Ultroser G, cumulative, 10 μg/ml) of the same compound?
A: 26.4 μg/μg DNA/12 days

Q: And the “Proteoglycans released during the 12 days of culture, Abs” value ([1]; 1% Ultroser G, cumulative, 100 μg/ml)?
A: 33.3 μg/μg DNA/12 days

Q: And the “Concentrations of PG in the clusters, effect in words” value ([1]; 1% Ultroser G, three concentrations studied)?
A: significantly stimulated and in a dose-dependent way

Q: And the activity at 1 µg/mL ([1]; Homo sapiens, Chondrocyte, 288 h, 1% Ultroser G, cumulative, 1 μg/ml, control = 100, read-out: Proteoglycans released during the 12 days of culture, %)?
A: 103%

Q: And the activity at 10 µg/mL ([1]; Homo sapiens, Chondrocyte, 288 h, 1% Ultroser G, cumulative, 10 μg/ml, control = 100, read-out: Proteoglycans released during the 12 days of culture, %)?
A: 165%

Q: What about the activity at 100 µg/mL ([1]; Homo sapiens, Chondrocyte, 288 h, 1% Ultroser G, cumulative, 100 μg/ml, control = 100, read-out: Proteoglycans released during the 12 days of culture, %) of the same compound?
A: 208%

Q: And the activity at 10 µg/mL ([1]; Homo sapiens, Chondrocyte, foetal calf serum, Table 14, 0-4 days, 10 μg/ml, control = 100%, read-out: PG in the culture medium, % of control)?
A: 118%

Q: And the activity at 100 µg/mL ([1]; Homo sapiens, Chondrocyte, foetal calf serum, Table 14, 0-4 days, 100 μg/ml, control = 100%, read-out: PG in the culture medium, % of control)?
A: 147%

Q: And the activity at 10 µg/mL ([1]; Homo sapiens, Chondrocyte, foetal calf serum, Table 14, 4-8 days, 10 μg/ml, control = 100%, read-out: PG in the culture medium, % of control)?
A: 119%

Q: And the activity at 100 µg/mL ([1]; Homo sapiens, Chondrocyte, foetal calf serum, Table 14, 4-8 days, 100 μg/ml, control = 100%, read-out: PG in the culture medium, % of control)?
A: 135%

Q: And the activity at 10 µg/mL ([1]; Homo sapiens, Chondrocyte, foetal calf serum, Table 15, 0-4 days, 10 μg/ml, control = 100%, read-out: PG in the culture medium, % of control)?
A: 131%

Q: What about the activity at 100 µg/mL ([1]; Homo sapiens, Chondrocyte, foetal calf serum, Table 15, 0-4 days, 100 μg/ml, control = 100%, read-out: PG in the culture medium, % of control) of the same compound?
A: 166%

Q: What about the activity at 10 µg/mL ([1]; Homo sapiens, Chondrocyte, foetal calf serum, Table 15, 4-8 days, 10 μg/ml, control = 100%, read-out: PG in the culture medium, % of control) of the same compound?
A: 123%

Q: What about the activity at 100 µg/mL ([1]; Homo sapiens, Chondrocyte, foetal calf serum, Table 15, 4-8 days, 100 μg/ml, control = 100%, read-out: PG in the culture medium, % of control) of the same compound?
A: 138%

Q: What about the activity at 10 µg/mL ([1]; Homo sapiens, Chondrocyte, foetal calf serum, Table 16, 0-8 days, 10 μg/ml, control = 100%, read-out: PG in the clusters over 8 days, % of control) of the same compound?
A: 128%

Q: What about the activity at 100 µg/mL ([1]; Homo sapiens, Chondrocyte, foetal calf serum, Table 16, 0-8 days, 100 μg/ml, control = 100%, read-out: PG in the clusters over 8 days, % of control) of the same compound?
A: 158%

Q: And the activity at 10 µg/mL ([1]; Homo sapiens, Chondrocyte, foetal calf serum, Table 17, 0-8 days, 10 μg/ml, control = 100%, read-out: PG in the clusters over 8 days, % of control)?
A: 120%

Q: And the activity at 100 µg/mL ([1]; Homo sapiens, Chondrocyte, foetal calf serum, Table 17, 0-8 days, 100 μg/ml, control = 100%, read-out: PG in the clusters over 8 days, % of control)?
A: 144%

Q: What about the “PGs in the clusters, effect in words” value ([1]; foetal calf serum, 10 and 100 μg/ml) of the same compound?
A: significantly increased

Q: And the “PG in the culture medium” value ([1]; foetal calf serum, Table 14, 0-4 days, 10 μg/ml)?
A: 7.7 ± 0.49 μg/μg DNA - 96 H

Q: What about the “PG in the culture medium” value ([1]; foetal calf serum, Table 14, 0-4 days, 100 μg/ml) of the same compound?
A: 9.5 ± 1.34 μg/μg DNA - 96 H

Q: And the “PG in the culture medium” value ([1]; foetal calf serum, Table 14, 4-8 days, 10 μg/ml)?
A: 2.37 ± 0.17 μg/μg DNA - 96 H

Q: What about the “PG in the culture medium” value ([1]; foetal calf serum, Table 14, 4-8 days, 100 μg/ml) of the same compound?
A: 2.69 ± 0.15 μg/μg DNA - 96 H

Q: And the “PG in the culture medium” value ([1]; foetal calf serum, Table 15, 0-4 days, 10 μg/ml)?
A: 6.9 ± 0.99 μg/μg DNA - 96 H

Q: What about the “PG in the culture medium” value ([1]; foetal calf serum, Table 15, 0-4 days, 100 μg/ml) of the same compound?
A: 8.8 ± 1.49 μg/μg DNA - 96 H

Q: And the “PG in the culture medium” value ([1]; foetal calf serum, Table 15, 4-8 days, 10 μg/ml)?
A: 2.1 ± 0.21 μg/μg DNA - 96 H

Q: What about the “PG in the culture medium” value ([1]; foetal calf serum, Table 15, 4-8 days, 100 μg/ml) of the same compound?
A: 2.4 ± 0.09 μg/μg DNA - 96 H

Q: And the “PG in the clusters over 8 days” value ([1]; foetal calf serum, Table 16, 0-8 days, 10 μg/ml)?
A: 1004 ± 56 ng/μg DNA

Q: And the “PG in the clusters over 8 days” value ([1]; foetal calf serum, Table 16, 0-8 days, 100 μg/ml)?
A: 1242 ± 208 ng/μg DNA

Q: What about the “PG in the clusters over 8 days” value ([1]; foetal calf serum, Table 17, 0-8 days, 10 μg/ml) of the same compound?
A: 688.8 ± 40.65 ng/μg DNA

Q: And the “PG in the clusters over 8 days” value ([1]; foetal calf serum, Table 17, 0-8 days, 100 μg/ml)?
A: 829.4 ± 9.37 ng/μg DNA

Q: And the “% inhibition of the production of hydroxyl radicals” value (shortened to “% inhibition”) ([2]; 10^-3 M)?
A: 78%

Q: And the “% inhibition” value ([2]; 10^-4 M)?
A: 41%

Q: And the “% inhibition” value ([2]; 10^-5 M)?
A: 22%

Q: What about the “Production of free radicals from KMB, effect in words” value ([2]; Table 22) of the same compound?
A: significantly inhibits

Q: And the “Direct reduction of ferricytochrome C” value (ferricytochrome C)?
A: powerful reducers of ferricytochrome C
